Patent publication US11505560B2, “Heterobifunctional compounds with improved specificity” (DANA-FARBER CANCER INSTITUTE, INC., priority 2017, dated 2022)
Entries after “also recorded” stand apart in the source; their conditions may differ.

Columns and labels:
[1] = system: BRD2BD1, BRD2BD2, BRD3BD1, BRD3BD2, BRD4BD1, BRD4BD2 GFP constructs; test: Cellular imaging-based degradation assay (bromodomain-GFP with mCherry reporter); format: cell-based, human; conditions: for bromodomain degradation activity and selectivity (in words): 5 h incubation, cellular imaging
Protocol: Cells stably expressing bromodomain-GFP with mCherry reporter were seeded at 30-50% confluency in 384 well plates (3764, Corning) with 50 μL FluoroBrite DMEM media (Gibco, A18967) containing 10% FBS per well a day before compound treatment. Compounds (see Figure legends) were dispensed using D300e Digital Dispenser (HP) normalized to 0.5% DMSO and incubated with cells for 5 h. The assay plate was imaged immediately using Acumen eX3/HCl (TTPLabtech) High Content Imager with 488 nm and 561 nm lasers in 2 μm×1 μm grid per well format. The resulting images were analyzed using CellProfiler™ (Carpenter, et al., GenomeBiology 7:r100 (2006)). A series of image analysis steps (‘image analysis pipeline’) was constructed.
The CellProfiler™ pipeline steps are briefly outlined here. First, the red and green channels were aligned and cropped to target the middle of each well (to avoid analysis of heavily clumped cells at the edges), and a background illumination function was calculated for both red and green channels of each well individually and subtracted to correct for illumination variations across the 384-well plate from various sources of error. An additional step was then applied to the green channel to suppress the analysis of large auto fluorescent artifacts and enhance the analysis of cell specific fluorescence by way of selecting for objects under a given size, 30 A.U., and with a given shape, speckles. mCherry-positive cells were then identified in the red channel filtering for objects between 8-60 pixels in diameter and using intensity to distinguish between clumped objects. The green channel was then segmented into GFP positive and negative areas and objects were labeled as GFP positive if at least 40% of it overlapped with a GFP positive area. The fraction of GFP-positive cells/mCherry-positive cells (GFP/mCherry ratio) in each well was then calculated, and the green and red images were rescaled for visualization. The GFP/mCherry ratio was normalized to DMSO and analyzed in GraphPad Prism 7.

[2] = biological target: T1, IKZF1Δ-CRBN complex formation (Homo sapiens, UniProt Q13422+Q96SW2, DEL197-239); test: CRBN-IKZF1Δ binding assay (TR-FRET); conditions: IKZF1Δ and DDB1ΔB-CRBN
T1 construct: made in house; host or cells: Trichoplusia ni High-Five insect cells (baculovirus)
T1 sequence (Q96SW2 whole entry, stated change not applied): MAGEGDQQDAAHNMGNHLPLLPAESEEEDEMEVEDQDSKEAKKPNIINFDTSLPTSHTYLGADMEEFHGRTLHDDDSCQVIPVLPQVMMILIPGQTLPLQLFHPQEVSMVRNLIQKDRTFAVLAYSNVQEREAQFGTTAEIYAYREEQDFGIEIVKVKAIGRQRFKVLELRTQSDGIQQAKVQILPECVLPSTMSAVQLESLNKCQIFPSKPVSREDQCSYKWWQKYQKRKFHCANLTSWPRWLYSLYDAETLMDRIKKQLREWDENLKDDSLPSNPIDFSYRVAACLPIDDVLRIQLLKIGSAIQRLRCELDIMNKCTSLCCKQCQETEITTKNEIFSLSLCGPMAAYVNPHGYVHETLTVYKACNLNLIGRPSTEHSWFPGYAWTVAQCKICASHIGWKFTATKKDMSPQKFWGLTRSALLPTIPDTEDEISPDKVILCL
T1 sequence (Q13422 with tags, fused parts or gaps DEL197-239 limits assumed): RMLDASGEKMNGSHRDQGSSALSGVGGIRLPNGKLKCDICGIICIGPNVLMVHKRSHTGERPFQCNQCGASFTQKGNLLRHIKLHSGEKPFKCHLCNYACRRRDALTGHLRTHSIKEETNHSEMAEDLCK
Protocol: Compounds in CRBN mutants dimerization assay were dispensed as described above into 200 nM His6-DDB1-His6-CRBNmutants or 200 nM His6-DDB1ΔB-His6-CRBNWT, 100 nM BRD4BD1-BODIPY-SpyCatcher and 2 nM terbium-anti-HIS Ab (Invitrogen) in a buffer containing 50 mM Tris pH 7.5, 100 mM NaCl, 0.1% Pluronic F-68 solution (Sigma) and 2% DMSO (4% DMSO final). Before TR-FRET measurements were conducted, the reactions were incubated for 15 min at RT. […] The TR-FRET signal of each data point was extracted by calculating the 520/490 nm ratio. […] The peak height of TR-FRET dBET dose response data was calculated in GraphPad Prism 7 using Area Under Curve analysis for three independent replicates (n=3) and the mean peak height and standard deviation calculated.
The standard deviation in IKZF1A TR-FRET compound titrations was calculated from three biological replicates (n=3) as an average of 5 technical replicates per well per experiment, or as an average of 5 technical replicates of single experiment for unlabelled protein titrations.

[3] = biological target: T2, IKZF1Δ-EGFP fusion protein (Homo sapiens, UniProt Q13422+Q96SW2, DEL197-239); test: IKZF1Δ-EGFP fusion protein degradation reporter assay (flow cytometry); format: cell-based; conditions: HEK293T cells
T2 construct: expressed in transfected cells; HEK293T cells
Protocol: (§1) IKZF1A, BRD2BD1, BRD2BD2, BRD3BD1, BRD3BD2, BRD4BD1, and BRD4BD2 were subcloned into mammalian pcDNA5/FRT Vector (Ampicillin and Hygromycin B resistant) modified to contain MCS-eGFP-P2A-mCherry. […] Following 2-3 passage cycle FACS (FACSAria II, BD) was used to enrich for cells expressing eGFP and mCherry.
(§2) Signal from 5000 cells per well was acquired in singlicate or duplicate and the eGFP and mCherry florescence monitored. Data was analyzed using FlowJo (FlowJo, LCC). […] The eGFP protein abundance relative to mCherry was then quantified as a ten-fold amplified ratio for each individual cell using the formula: 10×eGFP/mCherry. The median of the ratio was then calculated per set, normalized to the median of the DMSO ratio, and is denoted as relative abundance. Standard deviation is calculated from four replicates (n=4) unless described otherwise.

[4] = system: BRD2BD1, BRD2BD2, BRD3BD1, BRD3BD2, BRD4BD1, BRD4BD2 EGFP constructs; test: EGFP/mCherry reporter assay on individual BET bromodomains (flow cytometry); format: cell-based, human; conditions: for selectivity of degradation across BET bromodomains (in words): BRD2/3/4 BD1 and BD2
Protocol: as §1, §2

[5] = biological target: T3, BRD4BD1-EGFP (Homo sapiens, UniProt O60885+Q96SW2); test: BRD4BD1-EGFP/mCherry reporter cellular degradation assay (flow cytometry); format: cell-based; conditions: 5 h treatment
T3 construct: expressed in transfected cells
Protocol: as §1, with “Reporter cells that stably express BRD4BD1-EGFP followed by a P2A splice site separated mCherry, were treated with increasing concentrations of dBET molecules (FIG. 3A-FIG. 3F). […] IKZF1A,” for “IKZF1A,”
as §2

[6] = system: BRD2 and BRD3 in HEK293T cells; test: Immunoblot for cellular degradation of BRD2 and BRD3; format: cell-based, human
Protocol: (§3) HEK293T cells were treated with increasing concentrations of ZXH-03-26.

[7] = biological target: T4, endogenous BRD4 in HEK293T cells (Homo sapiens, UniProt O60885); test: Immunoblot for cellular degradation of endogenous BRD4; format: cell-based; conditions: 5 hours
T4 construct: retains activity on endogenous full length BRD4; endogenous in cells; host or cells: HEK293T
Protocol: as §3

[8] = system: IKZF1, IKZF3 and ZFP91 in MM.1s cells; test: Quantitative proteomics (TMT LC-MS3) in MM.1s cells; format: cell-based, human; conditions: 1 μM, five hours
Protocol: A micro-BCA assay (Pierce) was used to determine the final protein concentration in the cell lysate. […] Proteins were precipitated using methanol/chloroform. In brief, four volumes of methanol were added to the cell lysate, followed by one volume of chloroform, and finally three volumes of water.

SMILES | bromodomain degradation activity and selectivity (in words) [1] | induction of IKZF1-CRBN complex formation / IKZF1 binding (in words) [2] | cellular IKZF1 degradation (in words) [3] | also measured
Cc1sc2c(c1C)C(c1ccc(Cl)cc1)=N[C@@H](CC(=O)NCCOc1cccc3c1C(=O)N(C1CCC(=O)NC1=O)C3=O)c1nnc(C)n1-2 (stereo partly shown) [ZXH-2-42] | significantly reduced activity | greatly reduced compared to their nitrogen analogs |  | 
COC(=O)C[C@@H]1N=C(c2ccc(Cl)cc2)c2c(sc(C(=O)NCCCCCCCCOc3cccc4c3C(=O)N(C3CCC(=O)NC3=O)C4=O)c2C)-n2c(C)nnc21 (stereo partly shown) [ZXH-2-43] | potent degradation of bromodomains | greatly reduced compared to their nitrogen analogs; also recorded: reduced IKZF1 binding | reduced IKZF1 binding and IKZF1 degradation | degradation of BRD2/3/4 at low concentration (in words) ([1]; 2.6 nM concentration, 5 h): significant degradation of BRD2/3/4
COC(=O)C[C@@H]1N=C(c2ccc(Cl)cc2)c2c(sc(C(=O)NCCCCCCCCOc3ccc4c(c3)C(=O)N(C3CCC(=O)NC3=O)C4=O)c2C)-n2c(C)nnc21 (stereo partly shown) [ZXH-2-45] | potent degradation of bromodomains | greatly reduced compared to their nitrogen analogs; also recorded: reduced IKZF1 binding | reduced IKZF1 binding and IKZF1 degradation | 
COC(=O)C[C@@H]1N=C(c2ccc(Cl)cc2)c2c(sc(C(=O)NCCCNc3cccc4c3C(=O)N(C3CCC(=O)NC3=O)C4=O)c2C)-n2c(C)nnc21 (stereo partly shown) [ZXH-2-147] |  |  |  | selectivity of degradation across BET bromodomains (in words) [4]: selectively targets BRD4 for degradation and spares BRD2 and BRD3; also recorded: selective degradation of BRD4; degradation of BRD4BD1 (in words) [5]: active on BRD4BD1
COC(=O)C[C@@H]1N=C(c2ccc(Cl)cc2)c2c(sc(C(=O)NCCCCCNc3cccc4c3C(=O)N(C3CCC(=O)NC3=O)C4=O)c2C)-n2c(C)nnc21 (stereo partly shown) [ZXH-03-26] |  |  |  | degradation of BRD2 and BRD3 (in words) [6]: inactive on BRD2 and BRD3; concentrations at which degradation of BRD2 or 3 is spared [4]: > 10 µM; selectivity of degradation across BET bromodomains (in words) [4]: activity exclusively on the first bromodomain of BRD4; also recorded: selectively targets BRD4 for degradation and spares BRD2 and BRD3; degradation of BRD4BD1 (in words) [5]: active on BRD4BD1; DC50 ([5]; GFP/mCherry ratio, read-out: DC50/5h (half-maximal degradation after 5 hours of treatment), BRD4BD1): ~5 nM; degradation of endogenous BRD4 (in words) [7]: degrades endogenous BRD4 with comparable efficacy compared to the best pan-BET degrader dBET6
COC(=O)C[C@@H]1N=C(c2ccc(Cl)cc2)c2c(sc(C(=O)NCCCCCCCCNc3cccc4c3C(=O)N(C3CCC(=O)NC3=O)C4=O)c2C)-n2c(C)nnc21 (stereo partly shown) [dBET70, reference compound] |  | pronounced complex formation | equipotent to lenalidomide | co-degradation of CRBN-lenalidomide neo-substrates IKZF1, IKZF3 and ZFP91 [8]: pronounced co-degradation of CRBN-lenalidomide neo-substrates IKZF1, IKZF3 and ZFP91
COC(=O)C[C@@H]1N=C(c2ccc(Cl)cc2)c2c(sc(C(=O)NCCCCCCCCNc3ccc4c(c3)C(=O)N(C3CCC(=O)NC3=O)C4=O)c2C)-n2c(C)nnc21 (stereo partly shown) [dBET72, reference compound] |  | pronounced complex formation | equipotent to lenalidomide | 
